# Source: patent US11851381B2, “Application of farnesene in preparing plant-derived urease inhibitor” (priority 2022, dated 2023)
# Columns and labels:
# [1] = molecular target: T1, Canavalia ensiformis urease (Canavalia ensiformis, UniProt P07374); format: biochemical; settings: incubated 20 min at 37° C., HEPES pH 7.5; unit inferred; read-out: median inhibitory concentration (IC50) for inhibiting the activity of Canavalia ensiformis urease
# T1 construct: purchased Aladdin Company
# Method: Acetohydroxamic acid is weighed, and mixed with 20 mM of HEPES buffer solution (with pH of 7.5) to prepare an acetohydroxamic acid solution of 0.1 μM, 0.5 μM, 1 μM, 3 μM, 5 μM, 10 μM, 20 μM, 40 μM, 60 μM and 80 μM, and the solution is cold stored in a brown bottle in a refrigerator at 4° C. for standby use;
# Canavalia ensiformis urease is weighed, and dissolved in 20 mM of HEPES buffer solution (with pH of 7.5) to prepare the Canavalia ensiformis urease solution with a concentration of 10 U/mL, and the prepared solution is cold stored in the refrigerator at 4° C. for standby use. […]
# A. 50 μL of the above prepared farnesene solution with different concentrations is collected, added with 100 μL of Canavalia ensiformis urease solution respectively, and uniformly mixed to obtain mixed solutions, and the mixed solutions are incubated for 20 min at 37° C.; 100 μL of urea solution is added for light avoidance reaction for 20 min at a room temperature; the Berthelot developing solution A is added and uniformly mixed, and the Berthelot developing solution B is added for development for 10 min to obtain an incubation solution; and 250 μL of incubation solution is absorbed onto a 96-well plate, an OD absolute value at 595 nm is determined by a microplate reader, and three times of test are carried in parallel for each concentration. […]
# [2] = test system: soil urease-generating bacteria; experiment: Inhibition of soil urease-generating bacteria (bacterial ureC gene copy number by quantitative PCR); settings: urea 200 mg N kg^-1 dry soil, farnesene 0.5%, 2% of pure nitrogen
# Method: (§1) (1) Pre-culture of soil: air-dried soil (brown soil) is filtered by a 2 mm sieve and then placed in a culture dish, distilled water accounting for 15% of the weight of the dried soil is added, after the dried soil is uniformly and thoroughly immersed with water, the soil is pre-cultured for 2 weeks in a constant temperature incubator at 25° C. to restore the biological activity of the soil, and ventilation and constant moisture are kept in the pre-culture period, thereby obtaining the pre-cultured soil.
# (2) The pre-cultured soil is weighed; urea is added according to a concentration of 200 mg N kg^−1 of dry soil; the farnesene is added according to concentrations of pure nitrogen of 0 (U), 0.5% (U+0.5%), 1% (U+1%) and 2% (U+2%); and at the same time, the pre-cultured soil without urea and farnescene is used as control treatment, and 5 treatments are carried out and repeated for 4 times. In each treatment, the required urea and farnesene are dissolved in a certain amount of deionized water according to a required amount, then the solution is uniformly mixed with the pre-cultured soil that is equivalent to 50 g of air-dried soil by a vacuum method, the water content of the soil is enabled to reach 60% of the field water holding capacity (WHC), and finally the solution is placed in a 150 mL centrifugal pipe with a cover. […]
# [3] = test system: corns; experiment: Pot experiment: combined application of farnesene and urea on growth of corns; format: in vivo, corn; settings: potted corns; for Increase of dry weight / Yield increase: versus control without farnesene
# Description: Soil required for pot experiment is brown soil collected from Shenyang. 13 g of nitrogen phosphorus potassium fertilizer is used as base fertilizer to be applied in all layers according to a ratio of 26-10-12; and the fertilizer with farnescene and the fertilizer without farnescene are used as control, and the application amount is 0.5%, 1% and 5% of a pure nitrogen content in the fertilizer. Nitrogen fertilizer for test is urea, phosphorus fertilizer is calcium superphosphate, and potassium fertilizer is potassium sulfate. Each treatment is repeated for 5 times. The pretreated soil (filtered by a 5 mm sieve to remove stone pieces, roots, etc.) that is equivalent to 16 kg of air-dried oil is laid on square thick plastic paper with an edge length of 2 m, then the required fertilizer and inhibitor (if necessary) that are uniformly mixed in advance are applied uniformly to the soil, the paper is folded for multiple times by a diagonal folding method, in this period, it is necessary to lay the soil on the paper and then fold the paper, finally the soil is sufficiently and uniformly mixed with the fertilizer and inhibitor, the obtained mixture is transferred into a plastic pot (with a diameter of 28 cm and a height of 34 cm), and finally irrigation is carried out to make the water content of the soil reach 60% of the maximal field water holding capacity. Finally, a height about 5 cm is reserved between the soil surface and the top end of the pot. Three corn seeds are sowed in each pot in a sowing depth of 5 cm, and after the emergence (about 15 days), thinning is carried out to make each pot have one corn. Finally, all potted corns are carried onto a four-wheeled platform lorry and finally transferred into a net house. When in rainy days, the potted corns are transferred into a shed. The corns are watered manually every day in a growth period so as to maintain the soil moisture. The planting density is about 4000 corns per Mu, and a dry weight and yield of the corn are determined in autumn.
# [4] = test system: soil urease; experiment: Inhibition of soil urease activity in incubated brown soil; format: biochemical
# Method: as §1, with “incubator at a constant temperature of 25° C.” for “incubator at 25° C.”, “the pre-culture period.” for “the pre-culture period, thereby obtaining the pre-cultured soil.”
# (2) The pre-cultured soil is weighed, and added with DMSO solutions of farnesene and acetohydroxamic acid respectively, the concentrations of the farnesene and acetohydroxamic acid are 50 mg/kg (calculated by the dried soil) respectively, and a farnesene-soil mixture and an acetohydroxamic acid-soil mixture are obtained. 5 g of farnesece-soil mixture and 5 g of acetohydroxamic acid-soil mixture are weighed respectively and placed into glass test tubes (length 15 cm×diameter 15 mm), then 5 mL of distilled water is added respectively into the test tubes to make the soil located below a liquid surface, the mixtures in the test tubes are shaken by a vortex shaker and uniformly mixed; and at the same time, the pre-cultured soil without the inhibitor is used as control treatment (CK) and cultured in the constant temperature incubator at a constant temperature of 25° C., and sampling is carried out respectively on the 1st day, the 7th day, 14th day and 28th day after the culture (water is supplemented every day according to a weight method so as to keep a total weight of the test tube constant) for determination of urease activity. […]
# [5] = farnesene 0.5% of pure nitrogen content in the fertilizer
# [6] = farnesene 0.5% of pure nitrogen content
# [7] = farnesene 1% of pure nitrogen content in the fertilizer
# [8] = farnesene 1% of pure nitrogen content
# [9] = farnesene 5% of pure nitrogen content in the fertilizer
# [10] = farnesene 5% of pure nitrogen content
# T1 sequence (P07374 whole entry, looked up): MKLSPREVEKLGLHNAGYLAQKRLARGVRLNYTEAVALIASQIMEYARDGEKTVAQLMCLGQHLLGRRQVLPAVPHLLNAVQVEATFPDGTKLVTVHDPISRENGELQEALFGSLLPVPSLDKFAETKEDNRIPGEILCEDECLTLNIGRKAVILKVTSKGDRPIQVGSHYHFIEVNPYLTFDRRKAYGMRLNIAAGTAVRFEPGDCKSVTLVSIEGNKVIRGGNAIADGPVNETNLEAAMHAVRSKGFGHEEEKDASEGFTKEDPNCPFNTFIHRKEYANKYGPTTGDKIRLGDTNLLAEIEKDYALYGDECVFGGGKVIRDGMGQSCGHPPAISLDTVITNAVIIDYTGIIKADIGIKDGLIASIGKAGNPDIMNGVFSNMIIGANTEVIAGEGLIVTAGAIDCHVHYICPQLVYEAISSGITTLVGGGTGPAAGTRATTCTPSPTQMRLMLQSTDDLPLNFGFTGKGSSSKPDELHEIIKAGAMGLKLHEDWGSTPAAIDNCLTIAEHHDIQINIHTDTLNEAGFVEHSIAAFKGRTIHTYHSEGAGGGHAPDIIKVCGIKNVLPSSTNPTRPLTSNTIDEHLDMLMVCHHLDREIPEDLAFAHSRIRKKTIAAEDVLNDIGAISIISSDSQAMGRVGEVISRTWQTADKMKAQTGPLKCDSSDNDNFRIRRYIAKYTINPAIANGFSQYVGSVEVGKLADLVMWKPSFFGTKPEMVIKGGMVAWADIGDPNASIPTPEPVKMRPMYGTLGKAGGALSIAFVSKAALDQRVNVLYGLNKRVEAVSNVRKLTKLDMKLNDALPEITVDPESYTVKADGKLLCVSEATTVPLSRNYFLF
substance,measurement,setting,value
farnesene,IC50,[1],10.3 ± 0.25 µM
same,duration of the inhibition effect on urease-generating bacteria,[2],14 days
same,inhibition of the proliferation of urease-generating bacteria (copy number of bacterial ureC genes),[2]; 25° C.,can effectively inhibit the proliferation of the urease-generating bacteria
same,Dry weight,[3]; [5],16006.3 kg ha^−1
same,Yield,[3]; [5],8004.2 kg ha^−1
same,Increase of dry weight,[3]; [6],4.1%
same,Yield increase,[3]; [6],4.5%
same,Dry weight,[3]; [7],16922.8 kg ha^−1
same,Yield,[3]; [7],8521.3 kg ha^−1
same,Increase of dry weight,[3]; [8],8.6%
same,Yield increase,[3]; [8],10.1%
same,Dry weight,[3]; [9],17371.5 kg ha^−1
same,Yield,[3]; [9],8714.3 kg ha^−1
same,Increase of dry weight,[3]; [10],10.2%
same,Yield increase,[3]; [10],12.2%
same,duration of the inhibition effect on soil urease,"[4]; 50 mg/kg dried soil, brown soil, 25° C.",14 days
same,inhibition of the activity of soil urease,"[4]; 50 mg/kg dried soil, brown soil, 25° C., sampled day 1, 7, 14, 28",can effectively inhibit the activity of soil urease
same,inhibition effect on soil urease compared with acetohydroxamic acid,[4]; both at 50 mg/kg dried soil,equivalent to that of the commercial inhibitor acetohydroxamic acid
